Source: US5478842A, “Ether derivatives having 5-lipoxygenase inhibitory activity” (Zeneca Limited, priority 1993, dated 1995)

Legend:
[1] = Crystallinity / physical form; type: physicochemical
From the text: Such non-crystalline compounds are undesirable when consideration is given toward the preparation, purification, analysis, handling and formulation of larger quantities of the compounds.
In another aspect of the invention we have discovered that certain compounds of the invention are crystalline. The crystalline compounds of the invention are those for which a melting point has been given within the Examples provided hereinafter, for example the compounds of Examples 27 and 28. Thus such compounds are of value when their preparation on a larger scale is required. The purification, analysis and handling of a material is facilitated if it is formed in the crystalline state. It is known, for example, that the removal of solvent residues from non-crystalline, oily materials is problematical. In addition the preparation of a pharmaceutical composition comprising a crystalline material is a conventional procedure. The composition may, for example, be in a form suitable for oral use such as a tablet or capsule; or, for example, in a form suitable for administration by inhalation, for example as a finely divided powder or a microcrystalline form. Such options for the formulation of the material are precluded should it be formed in an oily state.

5-LO (LTB4) [2] = molecular target: T1, 5-LO (LTB4) (Homo sapiens, UniProt P09917); experiment: Test a): in vitro assay in heparinised human blood challenged with calcium ionophore A23187, LTB4 by radioimmunoassay; type: cell-based
T1 construct: incubating a test compound with heparinised human blood, prior to challenge with the calcium ionophore A23187; from tissue; host or cells: heparinised human whole blood (endogenous enzyme of blood cells)
T1 sequence (P09917 1-674): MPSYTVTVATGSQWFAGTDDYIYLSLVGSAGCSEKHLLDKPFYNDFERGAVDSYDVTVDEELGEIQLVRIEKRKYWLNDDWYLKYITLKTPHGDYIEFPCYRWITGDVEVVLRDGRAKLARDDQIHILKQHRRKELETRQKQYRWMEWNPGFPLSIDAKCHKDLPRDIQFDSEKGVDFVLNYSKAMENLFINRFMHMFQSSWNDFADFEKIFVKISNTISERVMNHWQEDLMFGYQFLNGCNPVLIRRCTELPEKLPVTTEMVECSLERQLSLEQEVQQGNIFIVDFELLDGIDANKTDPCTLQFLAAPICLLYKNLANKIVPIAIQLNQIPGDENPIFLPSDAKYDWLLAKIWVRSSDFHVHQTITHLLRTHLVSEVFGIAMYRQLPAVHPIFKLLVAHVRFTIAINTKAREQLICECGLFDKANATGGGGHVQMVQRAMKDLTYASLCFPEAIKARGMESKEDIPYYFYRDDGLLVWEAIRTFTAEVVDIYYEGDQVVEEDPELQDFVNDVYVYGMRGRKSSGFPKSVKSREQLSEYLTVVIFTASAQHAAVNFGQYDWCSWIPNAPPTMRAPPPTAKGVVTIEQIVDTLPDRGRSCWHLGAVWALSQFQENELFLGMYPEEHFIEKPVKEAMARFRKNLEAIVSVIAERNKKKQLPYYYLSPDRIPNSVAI
Description: a) An in vitro assay system involving incubating a test compound with heparinised human blood, prior to challenge with the calcium ionophore A23187 and then indirectly measuring the inhibitory effects on 5-L0 by assaying the amount of LTB4 using specific radioimmunoassays described by Carey and Forder (F. Carey and R. A. Forder, Prostaglandins, Leukotrienes Med., 1986, 22, 57; Prostaglandins, 1984, 28, 666; Brit. J. Pharmacol. 1985, 84, 34P) which involve the use of a protein-LTB4 conjugate produced using the procedure of Young et alia (Prostaglandins, 1983, 26(4), 605-613). The effects of a test compound on the enzyme cyclooxygenase (which is involved in the alternative metabolic pathway for arachidonic acid and gives rise to prostaglandins, thromboxanes and related metabolites) may be measured at the same time using the specific radioimmunoassay for thromboxane B2(TxB2) described by Carey and Forder (see above). This test provides an indication of the effects of a test compound against 5-L0 and also cyclooxygenase in the presence of blood cells and proteins. It permits the selectivity of the inhibitory effect on 5-L0 or cyclooxygenase to be assessed.

5-LO (LTB4) [3] = molecular target: T2, 5-LO (LTB4) (Rattus norvegicus, UniProt P12527); experiment: Test c): in vivo zymosan-induced LTB4 liberation in air pouch of male rats, oral; settings: 3 h; test c)
T2 construct: An in vivo system involving measuring the effects of a test compound administered orally to a group of male rats; from tissue; host or cells: live male rats, zymosan-inflamed subcutaneous air pouch (endogenous enzyme)
T2 sequence (P12527 1-673): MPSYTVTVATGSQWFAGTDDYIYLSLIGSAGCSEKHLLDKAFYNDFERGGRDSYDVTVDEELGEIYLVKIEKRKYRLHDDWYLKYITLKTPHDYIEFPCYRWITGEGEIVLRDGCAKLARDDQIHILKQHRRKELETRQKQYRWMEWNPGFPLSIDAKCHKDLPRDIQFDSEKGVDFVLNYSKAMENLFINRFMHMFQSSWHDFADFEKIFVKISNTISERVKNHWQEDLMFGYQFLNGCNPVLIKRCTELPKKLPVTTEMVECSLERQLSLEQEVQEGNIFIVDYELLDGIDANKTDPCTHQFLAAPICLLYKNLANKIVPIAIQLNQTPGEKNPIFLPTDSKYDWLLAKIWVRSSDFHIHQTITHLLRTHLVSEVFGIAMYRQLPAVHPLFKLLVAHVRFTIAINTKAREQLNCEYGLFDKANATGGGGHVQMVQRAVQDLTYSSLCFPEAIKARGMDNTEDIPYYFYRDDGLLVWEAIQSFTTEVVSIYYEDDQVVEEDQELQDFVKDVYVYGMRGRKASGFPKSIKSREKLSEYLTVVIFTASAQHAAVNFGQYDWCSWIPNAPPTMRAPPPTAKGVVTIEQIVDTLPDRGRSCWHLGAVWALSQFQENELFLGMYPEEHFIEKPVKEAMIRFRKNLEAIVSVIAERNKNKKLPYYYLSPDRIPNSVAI
Description: c) An in vivo system involving measuring the effects of a test compound administered orally to a group of male rats against the liberation of LTB4 induced by zymosan within an air pouch generated within the subcutaneous tissue of the back of the rats. The rats are anaesthetised and air pouches are formed by the injection of sterile air (20 ml). A further injection of air (10 ml) is similarly given after 3 days. At 6 days after the initial air injection the test compound is administered (usually orally as the suspension produced when a solution of the test compound in dimethylsulphoxide is added to hydroxypropylmethylcellulose), followed by the intrapouch injection of zymosan (1 ml of a 1% suspension in physiological saline). After 3 hours the rats are killed, the air pouches are lavaged with physiological saline, and the specific radioimmunoassay described above is used to assay LTB4 in the washings. This test provides an indication of inhibitory effects against 5-L0 in an inflammatory milieu.
Test c): oral ED50 (LTB4) in the range, for example, 0.1-100 mg/kg.

hepatic enzymes = experiment: Auto-induction on repeat dosing (decrease in C max or AUC); type: in vivo; settings: repeated dosing to a warm-blooded animal
From the text: The result is a decrease on repeat dosing of the quantity of the compound present in the animal's blood stream as shown, for example, by a decrease in the maximum concentration achieved (C max) or, for example, a decrease in the exposure of the animal to the compound as measured by the area under the curve (AUC) of a plot of the concentration of the compound in the blood stream versus time after dosing.

| crystallinity / physical form [1] | IC50 (5-LO (LTB4) [2]) | ED50 (5-LO (LTB4) [3]) | Structure (SMILES) | auto-induction (hepatic enzymes) |
| --- | --- | --- | --- | --- |
|  | 30 nM | ~0.02 mg/kg | C[C@H]1C[C@@](O)(c2csc(Sc3ccc4c(c3)CCC(=O)N4C)c2)CCO1 [Example 5, (2S,4R)-4-hydroxy-2-methyl-4-[2-(1-methyl-2-oxo-1,2,3,4-tetrahydroquinolin-6-ylthio)thien-4-yl]tetrahydropyran] |  |
|  | 50 nM | ~0.2 mg/kg | C[C@H]1C[C@@](O)(c2cnc(Sc3ccc4c(c3)CCC(=O)N4C)s2)CCO1 [Example 3, (2S,4R)-4-hydroxy-2-methyl-4-[2-(1-methyl-2-oxo-1,2,3,4-tetrahydro-quinolin-6-ylthio)thiazol-5-yl]tetrahydropyran] | lack to a substantial degree the undesirable property of auto-induction |
|  | 30 nM | ~0.15 mg/kg | C[C@H]1C[C@@](O)(c2cc(F)cc(S(=O)(=O)c3ccc4c(c3)CCC(=O)N4C)c2)CCO1 [Example 2, (2S,4R)-4-[5-fluoro-3-(1-methyl-2-oxo-1,2,3,4-tetrahydroquinolin-6-ylsulphonyl)phenyl]-4-hydroxy-2-methyltetrahydropyran] |  |

Further lines, the compound ahead of its results:

| Structure (SMILES) | crystallinity / physical form [1] | IC50 (5-LO (LTB4) [2]) | ED50 (5-LO (LTB4) [3]) | auto-induction (hepatic enzymes) |
| --- | --- | --- | --- | --- |
| C[C@H]1C[C@@](O)(c2cnc(Sc3ccc4c(c3)CC(=O)N4C)s2)CCO1 [Example 27, (2S,4R)-4-hydroxy-2-methyl-4-[2-(1-methyl-2-oxoindolin-5-ylthio)thiazol-5-yl]tetrahydropyran] | crystalline |  |  |  |
| COC1(c2ccc(Sc3ccc4c(c3)CCC(=O)N4C)s2)CCOCC1 [4-methoxy-4-[5-(1-methyl-2-oxo-1,2,3,4-tetrahydroquinolin-6-ylthio)thien-2-yl]tetrahydropyran, reference compound] |  |  |  | possesses the undesirable property of auto-induction |
| C[C@H]1C[C@@](O)(c2csc(S(=O)(=O)c3ccc4c(c3)CCC(=O)N4C)c2)CCO1 [Example 9, (2S,4R)-4-hydroxy-2-methyl-4-[2-(1-methyl-2-oxo-1,2,3,4-tetrahydroquinolin-6-ylsulphonyl)thien-4-yl]tetrahydropyran] |  |  |  | lack to a substantial degree the undesirable property of auto-induction |
| C[C@H]1C[C@@](O)(c2csc(Sc3ccc4c(c3)CC(=O)N4C)c2)CCO1 [Example 28, (2S,4R)-4-hydroxy-2-methyl-4-[2-(1-methyl-2-oxoindolin-5-ylthio)thien-4-yl]tetrahydropyran] | crystalline | 20 nM | ~0.05 mg/kg | lack to a substantial degree the undesirable property of auto-induction |
| CO[C@]1(c2ccc(Sc3ccc4c(c3)CCC(=S)N4C)s2)CCO[C@@H](C)C1 [(2S,4R)-4-methoxy-2-methyl-4-[5-(1-methyl-2-thioxo-1,2,3,4-tetrahydroquinolin-6-ylthio)thien-2-yl]tetrahydropyran, reference compound] | viscous oil |  |  |  |
